Patent publication US20060276542A1, “Methods for treating functional bowel disorders using alpha2 subunit calcium channel modulators with smooth muscle modulators” (priority 2003, published 2006)

Columns and labels:
beta-adrenergic = conditions: cited from earlier work
[1] = preclinical and clinical studies, cited from earlier work
[2] = test system: reduction in bladder capacity following continuous infusion of dilute acetic acid; test: Dilute acetic acid irritative model, bladder capacity by cystometry; assay type: in vivo, rat; conditions: isobologram, drug alone; for common maximal effect, return to % of saline control bladder capacity: group mean data; for common maximal effect (target value), return to % of saline control bladder capacity: individual responses
Method: Urethane anesthetized (1.2 g/kg) normal female rats were utilized in this study.
Animals were dosed by volume of injection=body weight in kg.
Animal Preparation: Female rats (250-300 g body weight) were anesthetized with urethane (1.2 g/kg) and a saline-filled catheter (PE-50) was inserted into the jugular vein for intravenous drug administration. […] The abdominal cavity was moistened with saline and closed by covering with a thin plastic sheet in order to maintain access to the bladder for emptying purposes. Fine silver or stainless steel wire electrodes were inserted into the external urethral sphincter (EUS) percutaneously for electromyography (EMG).
Following 30 minutes of AA infusion, 3 vehicle injections were made at 20 minute intervals to determine vehicle effects, if any.
P<0.050 was considered significant.

SMILES	potency of L-enantiomer relative to D-enantiomer (beta-adrenergic) [times]	blood levels of gabapentin across a broad range of oral doses ([1]; oral)	absorption from the large intestine [1]	common maximal effect, return to % of saline control bladder capacity [2]	common maximal effect (target value), return to % of saline control bladder capacity [2]
CC(C)NC[C@H](O)COc1cccc2ccccc12 [L-enantiomer of propranolol, propranolol]	100	–	–	–	–
CC(OC(=O)NCC1(CC(=O)O)CCCCC1)OC(=O)C(C)C (stereo not shown) [XP13512]	–	dose proportional blood levels of gabapentin	absorbed efficiently from the large intestine	–	–
NCC1(CC(=O)O)CCCCC1 [gabapentin, 1-(aminomethyl)cyclohexaneacetic acid]	–	–	–	43 % of saline control	31 % of saline control
CCN(CC)CC#CCOC(=O)C(O)(c1ccccc1)C1CCCCC1 (stereo not shown) [oxybutynin, 4-diethylaminio-2-butynyl phenylcyclohexyglycolate]	–	–	–	43 % of saline control	31 % of saline control
